Data: patent US20230295131A1, “INHIBITORS OF RHO-ASSOCIATED COILED-COIL KINASE” (Angion Biomedica Corp., priority 2020, published 2023)
Read-outs that look alike come from different tables or passages of the source.

Tests used:
ROCK2 = biological target: T1, ROCK2 (Homo sapiens, UniProt O75116); test: ROCK2 kinase binding affinity, DiscoverX KINOMEscan KdELECT; conditions: for ROCK2 Selectivity: selectivity for ROCK2 over ROCK1 from Kd
T1 construct: T7 phage fusion (kinase-tagged phage) or DNA tag for qPCR detection
Description: (§1) 1. ROCK1 and ROCK2 kinase assays: The ROCK1 and ROCK2 kinase binding affinities of compounds in this disclosure were determined by DiscoverX's KINOMEscan™ KdELECT technology (https://www.discoverx.com/kinomescan-elect-kinase-screening-and-profiling-services): Kinase-tagged T7 phage strains were prepared in an E. coli host derived from the BL21 strain. E. coli were grown to log-phase and infected with T7 phage and incubated with shaking at 32° C. until lysis. The lysates were centrifuged and filtered to remove cell debris. The remaining kinases were produced in HEK-293 cells and subsequently tagged with DNA for qPCR detection. […] The liganded beads were blocked with excess biotin and washed with blocking buffer (SeaBlock (Pierce), 1% BSA, 0.05% Tween 20, 1 mM DTT) to remove unbound ligand and to reduce nonspecific binding. […] Kds were determined using an 11-point 3-fold compound dilution series with three DMSO control points. […] The compounds were then diluted directly into the assays such that the final concentration of DMSO was 0.9%. All reactions performed in polypropylene 384-well plate. Each was a final volume of 0.02 ml. […] The kinase concentration in the eluates was measured by qPCR.

ROCK1 = biological target: T2, ROCK1 (Homo sapiens, UniProt Q13464); test: ROCK1 kinase binding affinity, DiscoverX KINOMEscan KdELECT; conditions: 11-point 3-fold dilution
T2 construct: T7 phage fusion (kinase-tagged phage) or DNA tag for qPCR detection
Description: as §1

[1] = KINOMEscan KdELECT, 11-point 3-fold dilution, read-out: Kd (μM) ROCK2

T1 sequence (O75116 whole entry, the tested form may be a part): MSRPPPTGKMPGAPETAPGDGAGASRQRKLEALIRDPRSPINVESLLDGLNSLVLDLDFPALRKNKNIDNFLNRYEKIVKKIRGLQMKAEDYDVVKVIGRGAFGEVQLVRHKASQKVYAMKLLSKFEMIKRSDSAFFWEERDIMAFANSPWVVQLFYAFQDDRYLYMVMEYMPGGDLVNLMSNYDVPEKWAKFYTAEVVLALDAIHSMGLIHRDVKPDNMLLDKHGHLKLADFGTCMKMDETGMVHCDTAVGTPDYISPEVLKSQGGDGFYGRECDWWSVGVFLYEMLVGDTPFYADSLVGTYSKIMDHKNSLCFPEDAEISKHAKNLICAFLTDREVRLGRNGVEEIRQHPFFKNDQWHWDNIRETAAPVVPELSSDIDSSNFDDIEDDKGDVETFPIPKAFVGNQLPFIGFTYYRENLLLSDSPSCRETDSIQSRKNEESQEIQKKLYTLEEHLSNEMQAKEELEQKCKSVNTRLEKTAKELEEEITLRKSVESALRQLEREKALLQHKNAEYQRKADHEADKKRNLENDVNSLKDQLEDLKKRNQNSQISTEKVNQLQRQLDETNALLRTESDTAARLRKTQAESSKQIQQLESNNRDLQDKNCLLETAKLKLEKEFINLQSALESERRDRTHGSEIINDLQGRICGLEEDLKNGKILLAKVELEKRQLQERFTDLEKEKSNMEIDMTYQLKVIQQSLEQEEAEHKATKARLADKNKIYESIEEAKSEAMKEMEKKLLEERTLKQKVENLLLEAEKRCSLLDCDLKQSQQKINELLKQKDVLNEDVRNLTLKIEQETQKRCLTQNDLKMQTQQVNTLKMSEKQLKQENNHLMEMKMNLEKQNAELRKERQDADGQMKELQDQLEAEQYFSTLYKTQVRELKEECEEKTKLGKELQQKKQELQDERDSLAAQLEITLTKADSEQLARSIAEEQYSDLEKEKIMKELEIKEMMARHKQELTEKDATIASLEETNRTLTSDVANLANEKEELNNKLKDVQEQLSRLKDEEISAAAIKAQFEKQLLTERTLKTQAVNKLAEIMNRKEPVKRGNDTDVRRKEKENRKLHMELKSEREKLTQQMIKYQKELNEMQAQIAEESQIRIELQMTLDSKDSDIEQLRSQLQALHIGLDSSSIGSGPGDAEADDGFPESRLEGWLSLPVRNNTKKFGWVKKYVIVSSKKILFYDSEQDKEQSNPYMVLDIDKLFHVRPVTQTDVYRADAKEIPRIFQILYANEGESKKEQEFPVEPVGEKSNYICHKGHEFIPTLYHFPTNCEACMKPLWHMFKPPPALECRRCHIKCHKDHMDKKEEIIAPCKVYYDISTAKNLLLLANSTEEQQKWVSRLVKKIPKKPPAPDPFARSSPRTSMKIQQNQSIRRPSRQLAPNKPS
T2 sequence (Q13464 whole entry, the tested form may be a part): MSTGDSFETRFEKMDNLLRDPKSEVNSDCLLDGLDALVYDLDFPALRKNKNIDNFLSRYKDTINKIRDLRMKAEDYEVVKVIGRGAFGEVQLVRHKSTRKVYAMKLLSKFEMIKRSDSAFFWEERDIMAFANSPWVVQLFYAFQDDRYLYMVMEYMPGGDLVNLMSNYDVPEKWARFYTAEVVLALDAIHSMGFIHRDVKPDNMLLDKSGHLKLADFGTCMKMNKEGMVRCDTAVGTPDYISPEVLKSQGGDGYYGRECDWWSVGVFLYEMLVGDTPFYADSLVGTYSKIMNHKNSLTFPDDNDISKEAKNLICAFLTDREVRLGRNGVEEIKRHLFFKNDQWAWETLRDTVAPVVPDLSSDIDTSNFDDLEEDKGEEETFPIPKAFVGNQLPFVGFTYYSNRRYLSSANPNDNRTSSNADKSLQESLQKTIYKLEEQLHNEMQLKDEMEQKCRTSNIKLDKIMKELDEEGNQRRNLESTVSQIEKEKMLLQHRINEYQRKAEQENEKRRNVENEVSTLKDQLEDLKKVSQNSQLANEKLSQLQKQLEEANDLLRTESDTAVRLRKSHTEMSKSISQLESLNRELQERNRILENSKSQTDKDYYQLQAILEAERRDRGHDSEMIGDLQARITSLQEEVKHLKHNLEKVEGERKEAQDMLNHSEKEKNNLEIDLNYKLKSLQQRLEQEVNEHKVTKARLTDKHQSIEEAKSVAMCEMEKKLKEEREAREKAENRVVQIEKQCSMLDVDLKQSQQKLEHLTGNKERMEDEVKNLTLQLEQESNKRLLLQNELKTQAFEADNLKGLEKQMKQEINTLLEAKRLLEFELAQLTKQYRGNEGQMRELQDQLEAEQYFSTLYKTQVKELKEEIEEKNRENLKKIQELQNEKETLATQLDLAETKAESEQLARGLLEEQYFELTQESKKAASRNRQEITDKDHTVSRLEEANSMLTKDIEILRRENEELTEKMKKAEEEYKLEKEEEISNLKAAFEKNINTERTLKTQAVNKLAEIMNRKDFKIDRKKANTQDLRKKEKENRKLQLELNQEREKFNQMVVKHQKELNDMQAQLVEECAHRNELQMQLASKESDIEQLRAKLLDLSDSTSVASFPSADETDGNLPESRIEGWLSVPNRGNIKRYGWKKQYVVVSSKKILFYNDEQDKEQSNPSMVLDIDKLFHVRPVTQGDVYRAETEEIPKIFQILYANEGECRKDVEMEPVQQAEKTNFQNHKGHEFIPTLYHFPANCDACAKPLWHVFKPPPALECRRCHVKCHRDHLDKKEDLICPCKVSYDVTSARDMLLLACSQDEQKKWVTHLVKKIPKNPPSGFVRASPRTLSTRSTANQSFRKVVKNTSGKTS

Row | Kd (ROCK2; [1]) | Kd (ROCK1) | Structure (SMILES) | ROCK2 Selectivity (ROCK2) | Kd (ROCK2)
1 | < 0.01 µM | 1 to 9.9 µM | O[C@@H]1CC[C@@H](Nc2nccc(-c3nccc(C#Cc4ccc5[nH]ncc5c4)n3)n2)C1 [Ex. 78, (1R,3R)-3-((4-((1H-Indazol-5-yl)ethynyl)-[2,4′-bipyrimidin]-2′-yl)amino)cyclopentanol] | *** (151 to 500-fold selectivity for ROCK2) | –
2 | < 0.01 µM | 1 to 9.9 µM | O[C@H]1CC[C@H](Nc2nccc(-c3nccc(C#Cc4ccc5[nH]ncc5c4)n3)n2)C1 [Ex. 90, (1S,3S)-3-((4-((1H-Indazol-5-yl)ethynyl)-[2,4′-bipyrimidin]-2′-yl)amino)cyclopentanol] | *** (151 to 500-fold selectivity for ROCK2) | –
3 | 0.01 to 0.099 µM | 0.1 to 0.99 µM | C(#Cc1ccnc(-c2ccnc(NCc3ccco3)n2)n1)c1ccc2[nH]ncc2c1 [Ex. 40, 4-((1H-Indazol-5-yl)ethynyl)-N-(furan-2-ylmethyl)-[2,4′-bipyrimidin]-2′-amine] | * (<50-fold selectivity for ROCK2) | –
4 | 0.01 to 0.099 µM | 1 to 9.9 µM | CNC(=O)CNc1nccc(-c2nccc(C#Cc3ccc4[nH]ncc4c3)n2)n1 [Ex. 55, 2-((4-((1H-Indazol-5-yl)ethynyl)-[2,4′-bipyrimidin]-2′-yl)amino)-N-methylacetamide] | ** (50 to 150-fold selectivity for ROCK2) | –
5 | < 0.01 µM | 0.1 to 0.99 µM | Cc1ccc(CNc2nccc(-c3nccc(C#Cc4ccc5[nH]ncc5c4)n3)n2)nc1 [Ex. 24, 4-((1H-Indazol-5-yl)ethynyl)-N-((5-methylpyridin-2-yl)methyl)-[2,4′-bipyrimidin]-2′-amine] | ** (50 to 150-fold selectivity for ROCK2) | –
6 | < 0.01 µM | 0.1 to 0.99 µM | C(#Cc1ccnc(-c2ccnc(NC[C@@H]3CCCO3)n2)n1)c1ccc2[nH]ncc2c1 [Ex. 35, (S)-4-((1H-Indazol-5-yl)ethynyl)-N-((tetrahydrofuran-2-yl)methyl)-[2,4′-bipyrimidin]-2′-amine] | *** (151 to 500-fold selectivity for ROCK2) | –
7 | 0.01 to 0.099 µM | 0.1 to 0.99 µM | CN1CCN(C(=O)CNc2nccc(-c3nccc(C#Cc4ccc5[nH]ncc5c4)n3)n2)CC1 [Ex. 73, 2-((4-((1H-Indazol-5-yl)ethynyl)-[2,4′-bipyrimidin]-2′-yl)amino)-1-(4-methylpiperazin-1-yl)ethanone] | * (<50-fold selectivity for ROCK2) | –
8 | < 0.01 µM | 1 to 9.9 µM | C(#Cc1ccnc(-c2ccnc(NC[C@@H]3CCOC3)n2)n1)c1ccc2[nH]ncc2c1 [Ex. 58, (S)-4-((1H-Indazol-5-yl)ethynyl)-N-((tetrahydrofuran-3-yl)methyl)-[2,4′-bipyrimidin]-2′-amine] | **** (>500-fold selectivity for ROCK2) | –
9 | 0.01 to 0.099 µM | 10 to 100 µM | Cc1ccnc(F)c1CNc1nccc(-c2nccc(C#Cc3ccc4[nH]ncc4c3)n2)n1 [Ex. 70, 4-((1H-Indazol-5-yl)ethynyl)-N-((2-fluoro-4-methylpyridin-3-yl)methyl)-[2,4′-bipyrimidin]-2′-amine] | **** (>500-fold selectivity for ROCK2) | –
10 | 0.01 to 0.099 µM | 1 to 9.9 µM | COC(C)(C)CNc1nccc(-c2nccc(C#Cc3ccc4[nH]ncc4c3)n2)n1 [Ex. 81, 4-((1H-Indazol-5-yl)ethynyl)-N-(2-methoxy-2-methylpropyl)-[2,4′-bipyrimidin]-2′-amine] | ** (50 to 150-fold selectivity for ROCK2) | –
11 | 0.01 to 0.099 µM | 0.1 to 0.99 µM | O=c1[nH]cccc1CNc1nccc(-c2nccc(C#Cc3ccc4[nH]ncc4c3)n2)n1 [Ex. 21, 3-(((4-((1H-Indazol-5-yl)ethynyl)-[2,4′-bipyrimidin]-2′-yl)amino)methyl)pyridin-2(1H)-one] | ** (50 to 150-fold selectivity for ROCK2) | –
12 | 0.01 to 0.099 µM | 0.1 to 0.99 µM | C(#Cc1ccnc(-c2ccnc(NCC3CCCN3)n2)n1)c1ccc2[nH]ncc2c1 (stereo not drawn) [Ex. 5, 4-((1H-Indazol-5-yl)ethynyl)-N-(pyrrolidin-2-ylmethyl)-[2,4′-bipyrimidin]-2′-amine] | * (<50-fold selectivity for ROCK2) | –
13 | 0.1 to 0.99 µM | 1 to 9.9 µM | Cc1cnc(CNc2nccc(-c3nccc(C#Cc4ccc5[nH]ncc5c4)n3)n2)nc1 [Ex. 4, 4-((1H-Indazol-5-yl)ethynyl)-N-((5-methylpyrimidin-2-yl)methyl)-[2,4′-bipyrimidin]-2′-amine] | * (<50-fold selectivity for ROCK2) | –
14 | < 0.01 µM | 0.1 to 0.99 µM | C(#Cc1ccnc(-c2ccnc(NCC3CCCO3)n2)n1)c1ccc2[nH]ncc2c1 (stereo not drawn) [Ex. 17, 4-((1H-Indazol-5-yl)ethynyl)-N-((tetrahydrofuran-2-yl)methyl)-[2,4′-bipyrimidin]-2′-amine] | *** (151 to 500-fold selectivity for ROCK2) | –
15 | < 0.01 µM | 0.1 to 0.99 µM | O=C(CNc1nccc(-c2nccc(C#Cc3ccc4[nH]ncc4c3)n2)n1)N1CCCC1 [Ex. 52, 2-((4-((1H-Indazol-5-yl)ethynyl)-[2,4′-bipyrimidin]-2′-yl)amino)-1-(pyrrolidin-1-yl)ethanone] | ** (50 to 150-fold selectivity for ROCK2) | –

The remaining lines, values behind:

Row | Structure (SMILES) | Kd (ROCK2; [1]) | Kd (ROCK1) | ROCK2 Selectivity (ROCK2) | Kd (ROCK2)
16 | Fc1ccccc1CNc1nccc(-c2nccc(C#Cc3ccc4[nH]ncc4c3)n2)n1 [Ex. 15, 4-((1H-Indazol-5-yl)ethynyl)-N-(2-fluorobenzyl)-[2,4′-bipyrimidin]-2′-amine] | 0.01 to 0.099 µM | 10 to 100 µM | *** (151 to 500-fold selectivity for ROCK2) | –
17 | C[C@@H](O)CNc1nccc(-c2nccc(C#Cc3ccc4[nH]ncc4c3)n2)n1 [Ex. 79, (R)-1-((4-((1H-Indazol-5-yl)ethynyl)-[2,4′-bipyrimidin]-2′-yl)amino)propan-2-ol] | – | 1 to 9.9 µM | ** (50 to 150-fold selectivity for ROCK2) | 0.01 to 0.099 µM
18 | Fc1ccnc(CNc2nccc(-c3nccc(C#Cc4ccc5[nH]ncc5c4)n3)n2)c1 [Ex. 10, 4-((1H-Indazol-5-yl)ethynyl)-N-((4-fluoropyridin-2-yl)methyl)-[2,4′-bipyrimidin]-2′-amine] | 0.01 to 0.099 µM | 1 to 9.9 µM | ** (50 to 150-fold selectivity for ROCK2) | –
19 | [2H]C([2H])(Nc1nccc(-c2nccc(C#Cc3ccc4[nH]ncc4c3)n2)n1)c1ccccn1 [Ex. 66, 4-((1H-Indazol-5-yl)ethynyl)-N-(pyridin-2-ylmethyl-d2)-[2,4′-bipyrimidin]-2′-amine] | < 0.01 µM | 0.1 to 0.99 µM | ** (50 to 150-fold selectivity for ROCK2) | –
20 | O=C(O)[C@H]1CC[C@@H](Nc2nccc(-c3nccc(C#Cc4ccc5[nH]ncc5c4)n3)n2)CC1 [Ex. 92, (1s,4s)-4-((4-((1H-Indazol-5-yl)ethynyl)-[2,4′-bipyrimidin]-2′-yl)amino)cyclohexanecarboxylic acid] | 0.01 to 0.099 µM | 0.1 to 0.99 µM | * (<50-fold selectivity for ROCK2) | –
21 | O[C@H]1CC[C@H](Nc2nccc(-c3nccc(C#Cc4ccc5[nH]ncc5c4)n3)n2)CC1 [Ex. 63, (1r,4r)-4-((4-((1H-Indazol-5-yl)ethynyl)-[2,4′-bipyrimidin]-2′-yl)amino)cyclohexanol] | < 0.01 µM | 1 to 9.9 µM | *** (151 to 500-fold selectivity for ROCK2) | –
22 | COc1ccnc(CNc2nccc(-c3nccc(C#Cc4ccc5[nH]ncc5c4)n3)n2)c1 [Ex. 11, 4-((1H-Indazol-5-yl)ethynyl)-N-((4-methoxypyridin-2-yl)methyl)-[2,4′-bipyrimidin]-2′-amine] | 0.01 to 0.099 µM | 0.1 to 0.99 µM | ** (50 to 150-fold selectivity for ROCK2) | –
23 | Fc1ccc(CNc2nccc(-c3nccc(C#Cc4ccc5[nH]ncc5c4)n3)n2)nc1 [Ex. 3, 4-((1H-Indazol-5-yl)ethynyl)-N-((5-fluoropyridin-2-yl)methyl)-[2,4′-bipyrimidin]-2′-amine] | < 0.01 µM | 1 to 9.9 µM | *** (151 to 500-fold selectivity for ROCK2) | –
24 | Fc1cncc(CNc2nccc(-c3nccc(C#Cc4ccc5[nH]ncc5c4)n3)n2)c1 [Ex. 29, 4-((1H-Indazol-5-yl)ethynyl)-N-((5-fluoropyridin-3-yl)methyl)-[2,4′-bipyrimidin]-2′-amine] | 0.1 to 0.99 µM | 1 to 9.9 µM | * (<50-fold selectivity for ROCK2) | –
25 | Clc1ccc(CNc2nccc(-c3nccc(C#Cc4ccc5[nH]ncc5c4)n3)n2)nc1 [Ex. 16, 4-((1H-Indazol-5-yl)ethynyl)-N-((5-chloropyridin-2-yl)methyl)-[2,4′-bipyrimidin]-2′-amine] | < 0.01 µM | 0.1 to 0.99 µM | * (<50-fold selectivity for ROCK2) | –
26 | O[C@H]1CC[C@@H](Nc2nccc(-c3nccc(C#Cc4ccc5cncn5c4)n3)n2)CC1 [Ex. 96, (1s,4s)-4-((4-(Imidazo[1,5-a]pyridin-6-ylethynyl)-[2,4′-bipyrimidin]-2′-yl)amino)cyclohexanol] | 0.01 to 0.099 µM | 10 to 100 µM | ** (50 to 150-fold selectivity for ROCK2) | –
27 | O[C@H]1CC[C@@H](Nc2nccc(-c3nccc(C#Cc4ccc5[nH]nc(F)c5c4)n3)n2)C1 [Ex. 94, (1S,3R)-3-((4-((3-Fluoro-1H-Indazol-5-yl)ethynyl)-[2,4′-bipyrimidin]-2′-yl)amino)cyclopentanol] | < 0.01 µM | 1 to 9.9 µM | **** (>500-fold selectivity for ROCK2) | –
